ChEMBL document CHEMBL5303304, “EUbOPEN Chemogenomics Library - IncuCyte” (2023)

Key:
Fibroblast = assay: Incucyte cell viability with human fibroblast; type: toxicity, cell-based; conditions: 10 µM, compound concentration 10 uM
HEK-293T = assay: Incucyte cell viability with HEK293T; type: toxicity, cell-based; conditions: human, 10 µM, compound concentration 10 uM
Also: unitless GR value; below 1 slowed growth and below 0 cell loss.

Compound	Growth Rate (Fibroblast; 6 h, replicate number 1)	Growth Rate (Fibroblast; 6 h, replicate number 2)	Growth Rate (Fibroblast; 12 h, replicate number 1)	Growth Rate (Fibroblast; 12 h, replicate number 2)	Growth Rate (Fibroblast; 18 h, replicate number 1)	Growth Rate (Fibroblast; 18 h, replicate number 2)	Growth Rate (Fibroblast; 24 h, replicate number 1)	Growth Rate (Fibroblast; 24 h, replicate number 2)	Growth Rate (HEK-293T; 0 h, replicate number 2)	Growth Rate (HEK-293T; 6 h, replicate number 1)	Growth Rate (HEK-293T; 6 h, replicate number 2)	Growth Rate (HEK-293T; 12 h, replicate number 1)	Growth Rate (HEK-293T; 12 h, replicate number 2)	Growth Rate (HEK-293T; 18 h, replicate number 1)	Growth Rate (HEK-293T; 18 h, replicate number 2)	Growth Rate (HEK-293T; 24 h, replicate number 1)	Growth Rate (HEK-293T; 24 h, replicate number 2)	Growth Rate (Fibroblast; 0 h, replicate number 2)	Growth Rate (HEK-293T; 0 h, replicate number 1)
O=C(Nc1ccc(C(O)(C(F)(F)F)C(F)(F)F)cc1)c1ccc(C(F)(F)F)cc1	0.78	-0.08	0.64	0.22	0.52	0.11	0.47	0.07	-0.33	-0.31	0.09	-0.13	0.2	0.04	0.18	0.05	0.15		
Cc1ncsc1-c1ccc(CNC(=O)[C@@H]2C[C@@H](O)CN2C(=O)[C@@H](NC(=O)C2(F)CC2)C(C)(C)C)c(OCCOc2ccc(CN3CCN(c4cc(-c5ccccc5O)nnc4N)CC3)cc2)c1																		-1	-1
COc1cc(C(=O)NCCOCCOCCOCCC(=O)Nc2cccc3c2C(=O)N(C2CCC(=O)NC2=O)C3=O)ccc1Nc1ncc(C(F)(F)F)c(Oc2cccc3c2C(=O)CC3)n1 (centres undefined)				0.65					-0.99	0.89		0.57		0.71	0.69	0.61	0.74	0.45	-0.87
N=C(N)NCCC[C@H](NC(=O)CC1(CC(=O)N2CCN(C(c3ccccc3)c3ccccc3)CC2)CCCC1)C(=O)NCc1ccccc1.O=C(O)C(F)(F)F.O=C(O)C(F)(F)F	0.88		0.74		0.47	0.92	0.8	0.64		0.7	0.95	0.89						-0.98	0.71
c1ccc(C(OC2CCN(CCCc3nnn[nH]3)CC2)c2ccccc2)cc1		-0.26				0.75				0.35	0.46	0.7	0.67	0.57	0.85	0.65	0.75		
C[C@@H](COCCC(=O)N1CCN(c2ncc(C(F)(F)F)cn2)CC1)Nc1cn[nH]c(=O)c1C(F)(F)F [ATAMPARIB]	0.88	0.74	0.3	0.15	0.22	0.13	0.39	0.15	0.81		0.59		0.8		0.9		0.75		0.95
